Test results: paper PMC5468484 (The Pediatric infectious disease journal, 2017)
“Also recorded” adds a separate entry of the source. Where two headings read alike, the source gives them in different places.

How the values were obtained:
[1] = human plasma; cited from earlier work
clinical = conditions: human, in vivo, iv
[2] = cited from earlier work
[3] = for Terminal half-life: study DUR001-106, single IV dose, post-hoc slope of gamma phase, three compartment model, median (range)
Safety evaluation = format: in vivo, human
[4] = Long term stability of dalbavancin plasma samples; format: in vitro ADME, human; conditions: plasma (K2-EDTA), 368 days stored at −20°C, LC-MS/MS
[5] = tested on: acute bacterial skin and skin structure infections; conditions: adults, cited from earlier work
[6] = tested on: cytochrome P450 isoenzymes; conditions: cited from earlier work
[7] = nonparametric bootstrap (N=1000) of final model
[8] = three-compartment model, 43 subjects, typical value at weight 40.9 kg
[9] = among the 36 treatment-emergent AEs
[10] = children 3 months to 11 years (N=34)
[11] = children 3 months to 11 years, single IV dose

In the case of `CN[C@H]1C(=O)N[C@@H]2Cc3ccc(cc3)Oc3cc4cc(c3O[C@@H]3O[C@H](C(=O)O)[C@@H](O)[C@H](O)[C@H]3NC(=O)CCCCCCCCC(C)C)Oc3ccc(cc3Cl)[C@@H](O)[C@@H]3NC(=O)[C@H](NC(=O)[C@@H]4NC(=O)[C@@H](NC2=O)c2cc(cc(O)c2Cl)Oc2cc1ccc2O)c1ccc(O)c(c1)-c1c(O[C@H]2O[C@H](CO)[C@@H](O)[C@H](O)[C@@H]2O)cc(O)cc1[C@@H](C(=O)NCCCN(C)C)NC3=O` [dalbavancin], the “Binding to plasma proteins” value [1] is listed as 93%, the clearance (clinical) is listed as 1.05 mL/h/kg and the clearance (clinical; 10 mg/kg) is listed as 1.23 mL/h/kg. For the same molecule, the clearance (clinical; 15 mg/kg) was 0.795 mL/h/kg, the “Volume of distribution at steady-state” value ([2]; adults) was 15.9 L and the “Eliminated as the parent compound in feces and urine” value [2] was ~ 70%. The Terminal half-life ([3]; 2 years to <6 years (N=11)) was 315 (271–332) h, the Terminal half-life ([3]; 3 months to <2 years (N=11)) was 279 (244–298) h and the Terminal half-life ([3]; 6 to 11 years (N=11)) was 390 (317–490) h. The “Power coefficient of albumin on Vc, final model estimate” value ([3]; (Albumin/3.7)^coefficient) was −0.73, the “Power coefficient of albumin on Vc, bootstrap median” value [3, 7] was −0.72 and the “Power coefficient of weight on volume parameters, bootstrap median” value [3, 7] was 0.95. The “Power coefficient of weight on volume parameters, final model estimate” value ([3]; same coefficient for Vc, Vp1, Vp2, ((Weight in kg)/40.9)^coefficient) was 0.95, the “Vp1 (volume of distribution for peripheral compartment 1), final model estimate” value [3, 8] was 2.90 L and the “Vp2 (volume of distribution for peripheral compartment 2), final model estimate” value [3, 8] was 2.93 L. The “AEs deemed possibly related to dalbavancin treatment” value (Safety evaluation; N=1 each) was “rash, diaper dermatitis, urticaria, and asymptomatic hepatic enzyme elevation”, the “Treatment-emergent AEs considered mild” value (Safety evaluation; [9]) was 26 and the “Treatment-emergent AEs considered moderate” value (Safety evaluation; [9]) was 6. The “Treatment-emergent AEs considered severe” value (Safety evaluation; [9]) was 4, the “Number of treatment-emergent AEs” value (Safety evaluation; [10]) was 36 and the “Serious or severe treatment-emergent AEs considered related to dalbavancin treatment” value (Safety evaluation; [10]) was “None and no serious or severe AEs related to treatment”. The “Subjects who experienced a serious AE” value (Safety evaluation; [10]) was “Five”, the Deaths (Safety evaluation; [11]) was “no deaths were reported” and the Tolerability (Safety evaluation; [11]) was “well tolerated”. The “AE probably related to study treatment” value (Safety evaluation; one subject) was “infusion site discomfort”, the “Adverse events assessed as possibly or probably related to treatment” value (Safety evaluation; out of 36 treatment-emergent adverse events) was “Five” and the “Long term stability of plasma samples” value [4] was “stable”. The “Efficacy of single 1500 mg infusion versus the 2-dose regimen” value ([5]; ABSSSI) was “as effective as the 2-dose regimen; also recorded: noninferior to the 2-dose regimen”, the “Efficacy versus intravenous vancomycin with subsequent oral linezolid in ABSSSI” value ([5]; two studies, 2-dose dalbavancin regimen) was “not inferior; also recorded: noninferior” and the “Substrate, inhibitor or inducer of cytochrome P450 isoenzymes” value [6] was “not a substrate, inhibitor, or inducer”.
